# Assay results: publication PMC5317004 (Scientific Reports, 2017)
# Several values for one entry are separate records, joined by “and”; a condition that tells them apart may be missing. Equal entries are not always repeated.
# What was measured:
# [1] = tested on: α7-nAChR; conditions: cited from earlier work
# [2] = tested on: chimeric α7-GluClβR; experiment: IVM pre-application before ACh, inhibition of ACh-elicited currents (whole-cell patch clamp); format: cell-based, chick nAChR α7 / C. elegans GluClβ
# Protocol: Data were extracted from experiments performed as in panel A. Since the currents could not be recovered following an exposure to IVM, each cell was exposed only to one concentration of IVM. […] The curve was fitted to the averaged data points with a non-linear regression using the Hill equation 2 (Eq. 2; r^2 = 0.996). Error bars correspond to SEM. Total of 41 cells were used to obtain the averaged points. Recordings were performed at −60 mV.
# Since the ACh-evoked response could not be recovered after exposure of the cell to IVM, we had to perform the above application protocol in different cells for each IVM concentration separately. By that, we obtained the inhibition graph shown in the inset of Fig. 3.
# In the case of inhibition of the current response, curves were fitted to the data points by a nonlinear regression using the Hill equation 2, […]
# Supplementary Information […]
# Supplementary Materials and Methods […]
# DNA construct and preparation of cells for electrophysiological experiments The cDNA encoding the α7-GluClβ chimeric subunit was generated as described previously3, and was cloned into a pcDNA3.1 vector.
# Chinese hamster ovary cells (CHO-K1, ATCC via Biological Industries Israel, Beit Haemek Ltd.) were cultured as performed previously2 in Dulbecco 's Modified E agle Med iu m (DMEM) containing 10% fetal calf serum (Biological Industries Israel Beit Haemek Ltd.), 2 mM glutamax, 100 Units/ml penicillin G and 100 μg/ml streptomycin, and grown in 5% CO2 at 37°C under 90-95% hu midity . CHO cells were seeded on glass coverslips (13-mm diameter) placed in a 24-multiwell plate. For the expression of the α7-GluClβR, cells were transiently transfected with the pcDNA3.1 plasmid containing the receptor’s ORF (200-600 ng per well) using transit-LT1 transfection reagent (Mirus, USA), according to the manufacturer’s protocol. pIRES-CD8 plas mid (200 ng per well) was also added to enable visualization of the ex pressing cells by beads coated with anti-CD8 antibodies (Invitrogen). […]
# Reagent (Roche Life Science). Recordings were performed 48-72 hours following transfection.
# Whole-cell patch clamp recordings
# Recordings were performed in the aforementioned CHO cells, as previously described1,2. Whole-cell patch clamp experiments were performed with normal external solution (NES) contained (in millimolar): 140 NaCl, 2.8 KCl, 2 CaCl2, 2 MgCl2, 10 glucose and 10 HEPES, adjusted to pH 7.35 with NaOH (310 mOsM). The pipette solution contained […]
# (in millimolar): 130 KCl, 4 MgCl2, 4 Na2ATP, 1 EGTA and 10 HEPES, adjusted to pH 7.35 with KOH (290 mOsM). The osmolarity of these solutions was maintained by adding sucrose.
# The electrode resistance was 6-10 MΩ when filled with the pipette solution. External solutions were applied onto the cell by using the VC-77SP fast-step system (Warner Instruments, CT, USA) combined with N2 pressure of 3-4 psi to produce laminar flow of the external solution onto the patched cell. All measurements were performed at 25 °C. The currents w ere measured with an Axopatch 200B patch-clamp amplifier (Molecular Devices, Sunnyvale, CA) and a Digidata 1440A interface (Molecular Devices). Acquisition of recording data was performed at 2.5 kHz and recordings were low-pass filtered at 1 kHz, through a four-pole Bessel filter.
# The pClamp 10 software (Molecular Devices) was used for data acquisition.
# To determine the chloride conductance and the reversal potential during current decline, the following procedure was employed. […]
# [3] = LUVs 6 mM, 5 minutes incubation plus 20-minutes ultracentrifugation; depending on the LUVs' lipid composition; cited from earlier work
compound,measurement,setting,value
"CC[C@H](C)[C@H]1O[C@]2(CC[C@@H]1C)C[C@@H]1C[C@@H](C/C=C(\C)[C@@H](O[C@H]3C[C@H](OC)[C@@H](O[C@H]4C[C@H](OC)[C@@H](O)[C@H](C)O4)[C@H](C)O3)[C@@H](C)/C=C/C=C3\CO[C@@H]4[C@H](O)C(C)=C[C@@H](C(=O)O1)[C@]34O)O2 [IVM, Ivermectin]",decrease of the ACh-EC50 by IVM,[1],20 fold
same,"ACh-elicited response after IVM pre-application, percent IP3/IP2","[2]; 5 μM IVM for 10 sec, then 50 μM ACh 0.5 sec, relative to response after DMSO pre-application, N = 8",16 ± 5.2%
same,"ACh-elicited response after IVM and long-term wash, percent IP4/IP2","[2]; 5 μM IVM for 10 sec, wash > 2 min, 50 μM ACh, N = 5",4.4 ± 1.3%
same,Hill coefficient (IVM inhibition curve),[2]; IVM applied prior to 50 μM ACh,~3
same,IC50,"[2]; IVM applied prior to 50 μM ACh, −60 mV, 41 cells",156 nM
same,Ki,"[2]; IVM applied prior to activation by ACh, IC50 taken as Ki for non-competitive inhibition, read-out: inhibition constant (Ki)",156 nM
same,depletion of IVM from the aqueous solution,[3],50% and 70%
